In US9211262B2, “Injectable pharmaceutical compositions of an anthracenedione derivative with anti-tumoral activity” (CTI BioPharma Corp., priority 2002, dated 2015):

Experiments:
[1] = tested on: YC-8 lymphoma; settings: wide range of doses; cited from earlier work
[2] = Solubility in water and sodium chloride solutions; type: physicochemical
Excerpt: However, the presence of sodium chloride requires the use of long lyophilisation cycles due to the low glass transition temperature observed.

[3] = in vivo; cited from earlier work
[4] = tested on: ascitic L1210 leukaemia; settings: wide range of doses; cited from earlier work
[5] = Stability in solution in common solvents for parenteral administration; type: physicochemical; settings: injectable liquid compositions

solubility in sodium chloride solutions ([2]; sodium chloride solutions 0.9 to 4%): progressively more soluble
solubility in water ([2]; water): low solubility
stability in solution [5]: problematic
SMILES: NCCNc1ccc(NCCN)c2c1C(=O)c1ccncc1C2=O.O=C(O)/C=C\C(=O)O.O=C(O)/C=C\C(=O)O [BBR 2778, 6,9-bis[(2-aminoethyl)amino]benzo[g]isoquinoline-5,10-dione dimaleate]
activity compared with mitoxantrone [1]: more active than mitoxantrone
cardiotoxicity [3]: lower than that of other known drugs belonging to the same class
activity compared with mitoxantrone [4]: more active than mitoxantrone
